Experimental data as given in patent US20240294572A1, “Antimicrobial Peptides” (priority 2021, published 2024).
In brackets after ≈: the same amount, converted by molar mass. No end group written: not given here.

What was measured:
[1] = molecular target: T1, Apolipoprotein A-IV (P06728) (Mus musculus, UniProt P06728); experiment: Mass spectrometry of mouse plasma proteins bound to bead-immobilized peptide; assay type: binding; conditions: peptide on beads, 5% mouse plasma, 18 hours
T1 construct: incubated with 5% mouse plasma; from tissue; host or cells: mouse plasma (5%)
T1 sequence (P06728 21-395): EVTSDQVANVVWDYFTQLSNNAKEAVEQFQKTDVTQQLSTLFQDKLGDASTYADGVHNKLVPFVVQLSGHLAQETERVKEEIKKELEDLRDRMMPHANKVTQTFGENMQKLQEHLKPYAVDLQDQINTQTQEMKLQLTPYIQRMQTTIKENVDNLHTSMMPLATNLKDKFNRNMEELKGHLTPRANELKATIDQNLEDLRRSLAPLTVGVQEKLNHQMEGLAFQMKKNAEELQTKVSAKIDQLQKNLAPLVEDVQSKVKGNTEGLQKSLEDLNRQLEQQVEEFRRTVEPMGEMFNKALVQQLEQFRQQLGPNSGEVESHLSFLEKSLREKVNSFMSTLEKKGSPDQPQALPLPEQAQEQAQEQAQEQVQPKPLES
Experimental: (§1) Dynabeads M-370 amine (2×10^9 beads/mL, 50 μL; Thermo Fisher Scientific) were washed 3 times in sterile PBS (1 mL; GIBCO) and reacted with a bifunctional SM(PEG)4 cross-linker (5 mg/mL in DMSO) containing N-hydroxysuccinimide (NHS) ester and maleimide functional groups. A stable covalent bond between the amino group of beads and the NHS ester of the cross-linker was formed in PBS at pH 7.2 at room temperature for 24 hours with shaking at 80 rpm. The beads were then washed six times with PBS to remove nonreacted cross-linker. Next, peptide C10-KR8 (with a cysteine at the N-terminus) at 5 mg/mL was reacted with the free maleimide group in PBS for 24 hours at room temperature with shaking at 80 rpm. Another round of washing was conducted to remove the nonreacted peptides. Both the L-and D-forms of the peptide were coupled in the same manner. A portion of the beads without peptide coupling was saved as a control.
(§2) For serum binding experiments, the beads were resuspended in 500 μL of PBS; 200-μL aliquots of the coated and control dynabead were incubated with 5% mouse plasma for 18 hours at 37° C. After binding, the beads were washed six times with PBS to remove unbound proteins. Finally, the beads were suspended in 50 μL of PBS for mass spectrophotometric analysis to identify peptide-binding partners.
(§3) The samples were reduced by 10 mM dithiothreitol (DTT) and incubated for 30 minutes at 56° C. and back to room temperature. A final concentration of 50 mM iodoacetamide was added to alkylate free cysteines followed by further incubation for 20 min in the dark. Bound proteins were enzymatically digested by trypsin (4 μL of 0.5 μg/mL) overnight. A 60 […] portion was transferred to a new Eppendorf® tube and dried for 2 hours. The samples were then dissolved in 20 μL of 2% acetonitrile with 0.1% formic acid before being loaded to Q-tip columns (Pepclean, C18 spin column). Column was activated by pipetting in and out (4× times), 10 μL of 70% acetonitrile with 0.1% formic acid, and equilibrating with the same volume of 2% acetonitrile with 0.1% formic acid. Binding of the samples was done by mixing more than 10 × times, followed by washing in the same buffer (2% acetonitrile with 0.1% formic acid). The bound peptides were then eluted with 20 μL of 70% acetonitrile with 0.1% formic acid. Samples were subjected to LC-MS analysis after being suspended in the desired buffer.
(§4) Extracted peptides were resuspended in 2% acetonitrile (ACN) and 0.1% formic acid (FA) and loaded onto trap column Acclaim™ PepMap™ 100 75 μm×2 cm C18 LC Columns (Thermo Scientific) at a flow rate of 4 μL/minute. These were then separated with a Thermo RSLC UltiMate™ 3000 on a Thermo Easy-Spray PepMap™ M RSLC C18 75 μm×50 cm C-18 2 μm column (Thermo Scientific) with a step gradient of 4-25% solvent B (0.1% FA in 80% ACN) from 10 to 37 minutes and 25-45% solvent B for 37-46 minutes at 300 nL/min and 50° C. with a 70 minute total run time. Eluted peptides were analyzed by a Thermo Orbitrap Fusion™ Lumos™ Tribrid™ (Thermo Scientific) mass spectrometer in a data dependent acquisition mode. A survey full scan MS (from m/z 350-1800) was acquired in the orbitrap with a resolution of 120000. The AGC target for MS1 was set as 4×10^5 and the ion filling time set as 100 ms. The most intense ions with charge state 2-6 were isolated in 3 second cycle and fragmented using HCD fragmentation with 40% normalized collision energy and detected at a mass resolution of 30000 at 200 m/z. The AGC target for MS/MS was set as 5×10^4 and ion filling time set 60 ms dynamic exclusion was set for 30 seconds with a 10 ppm mass window. Protein identification was performed by searching MS/MS data against the Swiss-Prot mouse protein database. The search was set up for full tryptic peptides with a maximum of two missed cleavage sites. Acetylation of protein N-terminus and oxidized methionine were included as variable modifications, and carbamidomethylation of cysteine was set as fixed modification. […]

[2] = molecular target: T2, Apolipoprotein C-III (P33622) (Mus musculus, UniProt P33622); experiment: as above; assay type: binding; conditions: peptide on beads, 5% mouse plasma, 18 hours
T2 construct: incubated with 5% mouse plasma; from tissue; host or cells: mouse plasma (5%)
T2 sequence (P33622 21-99): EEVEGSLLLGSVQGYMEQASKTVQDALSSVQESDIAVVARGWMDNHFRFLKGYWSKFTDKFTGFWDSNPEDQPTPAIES
Experimental: as §1, §2, §3, §4

[3] = molecular target: T3, Apolipoprotein E (P08226) (Mus musculus, UniProt P08226); experiment: as above; assay type: binding; conditions: peptide on beads, 5% mouse plasma, 18 hours
T3 construct: incubated with 5% mouse plasma; from tissue; host or cells: mouse plasma (5%)
T3 sequence (P08226 19-311): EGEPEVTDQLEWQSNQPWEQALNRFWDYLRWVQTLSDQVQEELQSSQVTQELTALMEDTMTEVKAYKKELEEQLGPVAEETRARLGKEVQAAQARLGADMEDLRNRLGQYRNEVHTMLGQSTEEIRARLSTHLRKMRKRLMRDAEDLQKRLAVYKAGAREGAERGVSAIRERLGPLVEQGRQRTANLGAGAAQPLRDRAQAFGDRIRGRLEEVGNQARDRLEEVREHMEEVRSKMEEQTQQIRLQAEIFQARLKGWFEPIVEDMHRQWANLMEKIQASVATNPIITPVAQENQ
Experimental: as §1, §2, §3, §4

[4] = molecular target: T4, Apolipoprotein A-I (Q00623) (Mus musculus, UniProt Q00623); experiment: as above; assay type: binding; conditions: peptide on beads, 5% mouse plasma, 18 hours
T4 construct: incubated with 5% mouse plasma; from tissue; host or cells: mouse plasma (5%)
T4 sequence (Q00623 19-264): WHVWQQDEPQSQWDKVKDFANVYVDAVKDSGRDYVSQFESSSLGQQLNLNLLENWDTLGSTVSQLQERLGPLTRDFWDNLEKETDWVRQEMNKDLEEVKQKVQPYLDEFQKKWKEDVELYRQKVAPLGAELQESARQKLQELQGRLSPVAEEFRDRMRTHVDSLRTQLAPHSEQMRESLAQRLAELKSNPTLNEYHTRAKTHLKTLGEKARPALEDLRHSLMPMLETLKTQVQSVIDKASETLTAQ
Experimental: as §1, §2, §3, §4

[5] = molecular target: T5, Apolipoprotein A-II (P09813) (Mus musculus, UniProt P09813); experiment: as above; assay type: binding; conditions: peptide on beads, 5% mouse plasma, 18 hours
T5 construct: incubated with 5% mouse plasma; from tissue; host or cells: mouse plasma (5%)
Experimental: as §1, §2, §3, §4

[6] = molecular target: T6, Serum albumin (P07724) (Mus musculus, UniProt P07724); experiment: as above; assay type: binding; conditions: peptide on beads, 5% mouse plasma, 18 hours
T6 construct: incubated with 5% mouse plasma; from tissue; host or cells: mouse plasma (5%)
Experimental: as §1, §2, §3, §4

[7] = molecular target: T7, Apolipoprotein C-I (P34928) (Mus musculus, UniProt P34928); experiment: as above; assay type: binding; conditions: peptide on beads, 5% mouse plasma, 18 hours
T7 construct: incubated with 5% mouse plasma; from tissue; host or cells: mouse plasma (5%)
T7 sequence (P34928 27-88): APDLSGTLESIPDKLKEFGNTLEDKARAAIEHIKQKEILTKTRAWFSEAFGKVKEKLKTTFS
Experimental: as §1, §2, §3, §4

[8] = tested on: P. aeruginosa PAO1; conditions: LL-37 value taken from Narayana, et al.; cited from earlier work
[9] = tested on: E. coli ATCC 25922; conditions: LL-37 value taken from Narayana, et al.; cited from earlier work
[10] = tested on: Klebsiella pneumonia ATCC 13883; conditions: LL-37 value taken from Narayana, et al.; cited from earlier work
[11] = tested on: S. aureus USA300 LAC; assay type: cell-based; conditions: USA300
Method in brief: (§5)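 Broth microdilution after CLSI M07-A10, modified: 2-fold peptide dilutions plus log-phase bacteria diluted to 0.001 OD, incubated overnight at 37° C, absorbance read at 630 nm. Medium effects probed with varied pH, NaCl or human serum in TSB (control pH 7.4), with 10%, 50%, 100% TSB, and with MHB.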

[12] = tested on: E. coli ATCC 25922; assay type: cell-based
Method in brief: as §5

[13] = tested on: human red blood cells (hRBCs); conditions: 50% hemolysis; LL-37 value taken from Narayana, et al.; cited from earlier work

T6 sequence (P07724 25-608): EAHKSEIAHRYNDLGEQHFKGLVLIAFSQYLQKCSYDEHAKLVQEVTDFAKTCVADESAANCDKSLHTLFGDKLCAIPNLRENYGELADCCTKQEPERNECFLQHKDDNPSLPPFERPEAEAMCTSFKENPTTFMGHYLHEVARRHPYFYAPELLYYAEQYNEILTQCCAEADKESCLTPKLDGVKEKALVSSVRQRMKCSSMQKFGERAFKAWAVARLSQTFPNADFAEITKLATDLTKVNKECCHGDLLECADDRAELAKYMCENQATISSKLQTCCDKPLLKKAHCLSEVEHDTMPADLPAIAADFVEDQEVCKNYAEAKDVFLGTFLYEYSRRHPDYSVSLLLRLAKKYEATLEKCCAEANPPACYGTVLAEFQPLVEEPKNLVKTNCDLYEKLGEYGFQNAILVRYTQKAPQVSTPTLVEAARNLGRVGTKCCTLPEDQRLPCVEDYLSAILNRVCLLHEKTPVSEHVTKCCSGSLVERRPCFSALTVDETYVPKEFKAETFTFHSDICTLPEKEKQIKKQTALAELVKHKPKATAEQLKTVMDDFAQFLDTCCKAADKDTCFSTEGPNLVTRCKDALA
T5 sequence (P09813 19-102): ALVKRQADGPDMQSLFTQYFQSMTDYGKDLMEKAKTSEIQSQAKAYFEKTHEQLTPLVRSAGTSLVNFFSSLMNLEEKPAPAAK

Row | Compound | Intensity of bound Apolipoprotein A-IV [1] | Intensity of bound Apolipoprotein C-III [2] | Intensity of bound Apolipoprotein E [3] | Intensity of bound Apolipoprotein A-I [4] | Intensity of bound Apolipoprotein A-II [5] | Intensity of bound Serum albumin [6] | Intensity of bound Apolipoprotein C-I [7] | MIC (μM) PA [8] [µM] | MIC (μM) EC [9] [µM] | MIC (μM) KP [10] [µM] | Minimal inhibitory concentration against S. aureus, 10% TSB [11] [µM] | Minimal inhibitory concentration against S. aureus, 50% TSB [11] [µM] | Minimal inhibitory concentration against S. aureus, 100% MHB [11] [µM] | Minimal inhibitory concentration against S. aureus, 100% TSB [11] [µM] | Minimal inhibitory concentration against E. coli, 10% TSB [12] [µM] | Minimal inhibitory concentration against E. coli, 50% TSB [12] [µM] | Minimal inhibitory concentration against E. coli, 100% MHB [12] [µM] | Minimal inhibitory concentration against E. coli, 100% TSB [12] [µM] | HC50 [13] [µM]
1 | C10-KR8 + linker: C10-KR8 with a cysteine, covalently attached via SM(PEG)4 cross-linker to Dynabeads M-370 amine (CKRIWQRIK; not fully specified (residue 1, N-terminus, C-terminus); also: added N-terminal Cys coupled via SM(PEG)4 to Dynabeads M-370 amine) | 3.21E+08 | 2.02E+08 | 1.68E+07 | 4.29E+09 | 3.65E+05 | 3.72E+10 | 4.35E+08 |  |  |  |  |  |  |  |  |  |  |  | 
2 | CC[C@H](C)[C@H](NC(=O)[C@H](CCCCN)NC(=O)[C@H](CCC(=O)O)NC(=O)[C@H](CCCCN)NC(=O)[C@H](CO)NC(=O)[C@H](CCCCN)NC(=O)[C@H](CCCNC(=N)N)NC(=O)[C@H](Cc1ccccc1)NC(=O)[C@H](Cc1ccccc1)NC(=O)[C@H](CC(=O)O)NC(=O)CNC(=O)[C@H](CC(C)C)NC(=O)[C@@H](N)CC(C)C)C(=O)NCC(=O)N[C@@H](CCCCN)C(=O)N[C@@H](CCC(=O)O)C(=O)N[C@@H](Cc1ccccc1)C(=O)N[C@@H](CCCCN)C(=O)N[C@@H](CCCNC(=N)N)C(=O)N[C@H](C(=O)N[C@H](C(=O)N[C@@H](CCC(N)=O)C(=O)N[C@@H](CCCNC(=N)N)C(=O)N[C@H](C(=O)N[C@@H](CCCCN)C(=O)N[C@@H](CC(=O)O)C(=O)N[C@@H](Cc1ccccc1)C(=O)N[C@@H](CC(C)C)C(=O)N[C@@H](CCCNC(=N)N)C(=O)N[C@@H](CC(N)=O)C(=O)N[C@@H](CC(C)C)C(=O)N[C@H](C(=O)N1CCC[C@H]1C(=O)N[C@@H](CCCNC(=N)N)C(=O)N[C@H](C(=O)N[C@@H](CCC(=O)O)C(=O)N[C@@H](CO)C(N)=O)[C@@H](C)O)C(C)C)[C@@H](C)CC)C(C)C)[C@@H](C)CC [LL-37, reference compound] |  |  |  |  |  |  |  | >50 | 3.1 to 6.2 | 6.2 (≈ 27.9 µg/mL) | 50 (≈ 225 µg/mL) | > 50 | >50 | > 50 | 1.6 (≈ 7.19 µg/mL) | 6.2 (≈ 27.9 µg/mL) | 6.2 (≈ 27.9 µg/mL) | 6.25 to 12.5 | 170
